{"source": "patent US6797806B2", "about": "“Fragments of CR1 and their use” (AdProTech Limited, priority 1996, dated 2004)", "origin": "cited, not measured here", "key": {"[1]": {"conditions": "in vivo"}, "[2]": {"test_system": "myeloperoxidase activity (an indicator of neutrophil accumulation)", "conditions": "rat"}, "[3]": {"conditions": "systemic inhibition of CA over 6 days"}, "[4]": {"conditions": "in vivo", "remark": "listed apart in the source"}, "[5]": {"conditions": "in vivo", "remark": "listed apart in the source"}}, "data": [{"substance": "sCR1: soluble CR1 construct, complement inhibitor, molecular weight 245 kilodaltons", "values": [{"measurement": "survival rates following transplantation", "setting": "[1]", "value": "extended survival rates"}, {"measurement": "myeloperoxidase activity following traumatic injury", "setting": "[2]", "value": "reduce myeloperoxidase activity"}, {"measurement": "CNS inflammation, demyelination and deposition of complement components", "setting": "[3]", "value": "blocked"}, {"measurement": "clinical score", "setting": "[3]", "value": "improvements in clinical score"}, {"measurement": "activity in a reversed passive Arthus reaction", "setting": "[4]", "value": "demonstrated in vivo activity"}, {"measurement": "post-ischemic myocardial inflammation and necrosis", "setting": "[5]", "value": "suppressed"}]}]}
